# What was measured:
# [1] = target: T1, human EP4 receptor (Homo sapiens, UniProt P35408); experiment: Measurement of cAMP responses by Homogeneous Time Resolved Fluorescence (Test 2); assay type: cell-based; set-up: expressed in transfected cells; details: for Results of Test 2 (Functional assay, antagonist % inh): at 10 μM, PGE2 1 nM, HEK-293 cells stably expressing human EP4; for inhibition at 10 µM: HEK293, PGE2 1 nM, HEK-293 cells stably expressing human EP4, read-out: Results of Test 2 (Functional assay, antagonist % inh)
# T1 sequence (P35408 whole entry): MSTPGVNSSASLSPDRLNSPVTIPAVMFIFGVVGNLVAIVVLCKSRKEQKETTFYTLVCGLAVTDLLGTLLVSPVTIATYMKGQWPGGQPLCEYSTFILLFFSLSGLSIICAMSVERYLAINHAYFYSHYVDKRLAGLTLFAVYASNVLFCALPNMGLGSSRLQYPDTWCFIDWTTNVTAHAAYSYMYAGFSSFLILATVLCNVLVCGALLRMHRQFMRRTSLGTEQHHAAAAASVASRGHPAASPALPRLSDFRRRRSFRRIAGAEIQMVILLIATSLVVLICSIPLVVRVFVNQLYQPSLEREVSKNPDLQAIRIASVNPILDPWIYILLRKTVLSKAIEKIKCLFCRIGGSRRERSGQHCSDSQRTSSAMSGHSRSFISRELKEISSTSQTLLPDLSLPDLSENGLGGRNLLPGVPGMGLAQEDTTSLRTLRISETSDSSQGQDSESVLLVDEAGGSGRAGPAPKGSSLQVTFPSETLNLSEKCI
# Protocol: Test 2: Measurement of cAMP Responses by Homogeneous Time Resolved Fluorescence
# cAMP measurements on HEK-293 cells that stably expressed human EP4 receptors were performed by using a system based on Homogeneous Time Resolved Fluorescense (HTRF). This technology allows the direct measurement of cAMP in living cells. The principle of this assay is based on competition between cAMP produced by cells and cAMP-d2 conjugate for the binding with monoclonal anti-cAMP-cryptate conjugate. The HTRF cAMP kit from CisBio was used according to the manufacturer's directions. The experimental procedure was performed as stated below.
# Suspended cells (30,000 cells per well) were added to 96-well culture plates in 30 μl of Optimem supplemented with 500 μM IBMX. Compounds were then added in 10 μl of stimulation buffer and incubated at 25° C. for 30 minutes followed by 10 μl of PGE2 to a final concentration of 1 nM. After 30 minutes at 25° C., the reaction was stopped lysing the cells with a mixture of 25 μl of cryptate and 25 μl of cAMP-d2 prepared in the lysis buffer supplied by the manufacturer. Plates were incubated for an additional hour at room temperature and read at 665 nm/620 nm using an UltraEvolution Plate reader (Tecan).
# Antagonist percentage inhibition was calculated relating compounds activity to the 0% inhibition of the wells incubated with 1 nM PGE2 alone and 100% inhibition of the wells incubated with 1 nM PGE2 plus 1 μM of the reference antagonist.
# [2] = target: T1, human EP4 receptor; experiment: Human EP4 receptor radioligand binding assay (Test 1); set-up: expressed in transfected cells; host or cells: HEK-293 cell membranes; details: [3H]-PGE2 1 nM, transfected HEK-293 cell membranes; for Results of Test 1 (Binding assay, % inh): at 10 μM; for inhibition at 10 µM: read-out: Results of Test 1 (Binding assay, % inh)
# Protocol: Test 1: Human EP4 Receptor Radioligand Binding Assay
# To investigate binding properties of EP4 receptor ligands to human EP4 receptor, transfected HEK-293 cell membranes and [3H]-PGE2 (Perkin Elmer) were used. In 96-well plates the assay was carried out with a total reaction volume of 250 μl, containing 25 μl of membrane suspension (30 μg protein/well), 25 μl of [3H]-PGE2 (1 nM) in either absence or presence of 25 μl of either buffer or PGE2 (10 μM) for total and non-specific binding, respectively. Binding buffer contained 25 mM MES, 10 mM MgCl2 and 1 mM EDTA at pH 6.0. Plates were incubated at 25° C. for 120 minutes. After the incubation period, 200 μl of incubate were transferred to MultiScreen HTS, FB plates (Millipore), filtered and plates were washed 6 times with ice-cold 10 mM MES, 0.01% BSA at pH 6.0. Filters were dried and counted in a MicroBeta scintillation counter (Perkin-Elmer) using EcoScint liquid scintillation cocktail.
# Percentage inhibition was calculated relating compounds activity to the 0% inhibition of the wells incubated with 1 nM [3H]-PGE2 alone (total binding) and 100% inhibition of the wells incubated with 1 nM [3H]-PGE2 plus 10 μM PGE2 (non-specific binding).
SMILES,"Results of Test 2 (Functional assay, antagonist % inh) [1]","Results of Test 1 (Binding assay, % inh) [2]",inhibition at 10 µM [1],inhibition at 10 µM [2]
"Cc1ccc(-c2cccc(F)c2)cc1C(=O)Nc1c(C)cc(C(=O)O)cc1C [Example 4, 4-(3′-Fluoro-4-methylbiphenyl-3-ylcarboxamido)-3,5-dimethylbenzoic acid]",$ (% inh >75),# (% inh >75),,
"Cc1ccc(-c2cccc(C#N)c2)cc1C(=O)Nc1c(C)cc(C(=O)O)cc1C [Example 5, 4-(3′-Cyano-4-methylbiphenyl-3-ylcarboxamido)-3,5-dimethylbenzoic acid]",$ (% inh >75),# (% inh >75),,
"Cc1ccc(-c2cccc(CO)c2)cc1C(=O)Nc1c(Cl)cc(C(=O)O)cc1Cl [Example 6, 3,5-Dichloro-4-(3′-(hydroxymethyl)-4-methylbiphenyl-3-ylcarboxamido)benzoic acid]",$ (% inh >75),# (% inh >75),,
"Cc1ccc(-c2cccc(C#N)c2)cc1C(=O)Nc1c(Cl)cc(C(=O)O)cc1Cl [Example 7, 3,5-Dichloro-4-(3′-cyano-4-methylbiphenyl-3-ylcarboxamido)benzoic acid]",$ (% inh >75),# (% inh >75),,
"COc1cccc(-c2ccc(C)c(C(=O)Nc3c(Cl)cc(C(=O)O)cc3Cl)c2)c1 [Example 8, 3,5-Dichloro-4-(3′-methoxy-4-methylbiphenyl-3-ylcarboxamido)benzoic acid]",$ (% inh >75),# (% inh >75),,
"Cc1ccc(-c2cccc(CO)c2)cc1C(=O)Nc1c(C)cc(C(=O)O)cc1C [Example 9, 4-(3′-(Hydroxymethyl)-4-methylbiphenyl-3-ylcarboxamido)-3,5-dimethylbenzoic acid]",$ (% inh >75),# (% inh >75),,
"Cc1ccc(-c2cc(Cl)ccc2F)cc1C(=O)Nc1c(C)cc(C(=O)O)cc1C [Example 10, 4-(5′-Chloro-2′-fluoro-4-methylbiphenyl-3-ylcarboxamido)-3,5-dimethylbenzoic acid]",$ (% inh >75),# (% inh >75),,
"Cc1ccc(-c2cc(F)ccc2F)cc1C(=O)Nc1c(C)cc(C(=O)O)cc1C [Example 11, 4-(2′,5′-Difluoro-4-methylbiphenyl-3-ylcarboxamido)-3,5-dimethylbenzoic acid]",$ (% inh >75),# (% inh >75),,
"COc1ccc(F)c(-c2ccc(C)c(C(=O)Nc3c(C)cc(C(=O)O)cc3C)c2)c1 [Example 12, 4-(2′-fluoro-5′-methoxy-4-methylbiphenyl-3-ylcarboxamido)-3,5-dimethylbenzoic acid]",$ (% inh >75),# (% inh >75),,
"Cc1ccc(-c2cccc(C(N)=O)c2)cc1C(=O)Nc1c(C)cc(C(=O)O)cc1C [Example 13, 4-(3′-Carbamoyl-4-methylbiphenyl-3-ylcarboxamido)-3,5-dimethylbenzoic acid]",$ (% inh >75),# (% inh >75),,
"Cc1cc(C(=O)O)cc(C)c1NC(=O)c1cc(-c2cccc(Cl)c2)ccc1Cl [Example 14, 4-(3′,4-Dichlorobiphenyl-3-ylcarboxamido)-3,5-dimethylbenzoic acid]",$ (% inh >75),# (% inh >75),,
"Cc1ccc(-c2cccc(Cl)c2)cc1C(=O)Nc1c(Cl)cc(C(=O)O)cc1Cl [Example 15, 3,5-Dichloro-4-(3′-chloro-4-methylbiphenyl-3-ylcarboxamido)benzoic acid]",$ (% inh >75),# (% inh >75),,
"O=C(O)c1cc(Cl)c(NC(=O)c2cc(-c3cccc(CO)c3)ccc2Cl)c(Cl)c1 [Example 16, 3,5-Dichloro-4-(4-chloro-3′-(hydroxymethyl)biphenyl-3-ylcarboxamido)benzoic acid]",$ (% inh >75),# (% inh >75),,
"COc1cccc(-c2ccc(Cl)c(C(=O)Nc3c(Cl)cc(C(=O)O)cc3Cl)c2)c1 [Example 17, 3,5-Dichloro-4-(4-chloro-3′-methoxybiphenyl-3-ylcarboxamido)benzoic acid]",$ (% inh >75),# (% inh >75),,
"N#Cc1cccc(-c2ccc(Cl)c(C(=O)Nc3c(Cl)cc(C(=O)O)cc3Cl)c2)c1 [Example 18, 3,5-Dichloro-4-(4-chloro-3′-cyanobiphenyl-3-ylcarboxamido)benzoic acid]",$ (% inh >75),# (% inh >75),,
"O=C(O)c1cc(Cl)c(NC(=O)c2cc(-c3cccc(Cl)c3)ccc2Cl)c(Cl)c1 [Example 19, 3,5-Dichloro-4-(3′,4-dichlorobiphenyl-3-ylcarboxamido)benzoic acid]",$ (% inh >75),# (% inh >75),,
"Cc1ccc(-c2cccc(Cl)c2)cc1C(=O)Nc1c(C)cc(C(=O)O)cc1C [Example 20, 4-(3′-Chloro-4-methylbiphenyl-3-ylcarboxamido)-3,5-dimethylbenzoic acid]",$ (% inh >75),# (% inh >75),,
"Cc1cc(C(=O)O)ccc1NC(=O)c1cc(-c2cccc(Cl)c2)ccc1Cl [Example 21, 4-(3′,4-Dichlorobiphenyl-3-ylcarboxamido)-3-methylbenzoic acid]",$ (% inh >75),# (% inh >75),,
"Cc1cc(C(=O)O)cc(Cl)c1NC(=O)c1cc(-c2cccc(Cl)c2)ccc1Cl [Example 22, 3-Chloro-4-(3′,4-dichlorobiphenyl-3-ylcarboxamido)-5-methylbenzoic acid]",$ (% inh >75),# (% inh >75),,
"Cc1cc(C(=O)O)cc(C)c1NC(=O)c1nc(-c2cccc(Cl)c2)ccc1Cl [Example 23, 4-(3-Chloro-6-(3-chlorophenyl)picolinamido)-3,5-dimethylbenzoic acid]",,,> 75%,> 75%
"Cc1cc(C(=O)O)cc(C)c1NC(=O)c1cc(OCC(C)C)ccc1Cl [Example 24, 4-(2-Chloro-5-isobutoxybenzamido)-3,5-dimethylbenzoic acid]",,,> 75%,> 75%
"CC(C)COc1ccc(Cl)c(C(=O)Nc2c(Cl)cc(C(=O)O)cc2Cl)c1 [Example 25, 3,5-Dichloro-4-(2-chloro-5-isobutoxybenzamido)benzoic acid]",,,> 75%,> 75%
"O=C(O)c1cc(Cl)c(NC(=O)c2cc(OCc3ccc(F)cc3F)ccc2Cl)c(Cl)c1 [Example 35, 3,5-Dichloro-4-(2-chloro-5-(2,4-difluorobenzyloxy)benzamido)benzoic acid]",,,> 75%,> 75%
"O=C(O)c1cc(Cl)c(NC(=O)c2cc(OCc3ccc(Cl)cc3F)ccc2Cl)c(Cl)c1 [Example 36, 3,5-Dichloro-4-(2-chloro-5-(4-chloro-2-fluorobenzyloxy)benzamido)benzoic acid]",,,> 75%,> 75%
"Cc1ccc(C(=O)O)cc1NC(=O)c1cc(-c2cccc(Cl)c2)ccc1C [Example 38, 3-(3′-Chloro-4-methylbiphenyl-3-ylcarboxamido)-4-methylbenzoic acid]",$ (% inh >75),# (% inh >75),,
"Cc1ccc(C(=O)O)cc1NC(=O)c1nc(-c2cccc(Cl)c2)ccc1Cl [Example 42, 3-(3-Chloro-6-(3-chlorophenyl)picolinamido)-4-methylbenzoic acid]",,,> 75%,> 75%

# Source: patent publication US9926276B2, “Substituted benzamides with activity towards EP4 receptors” (DRACONIS PHARMA, S.L., priority 2013, dated 2018)
